Experimental data published in patent US8895568B2, “Compositions comprising substituted pteridines as agrochemicals” (Dow AgroSciences LLC, priority 2009, dated 2014).

What was measured:
Assay type in all cases: in vivo
Cochliobolus sativus = assay: Spot Blotch of Wheat (COCHSA), foliar spray, percent disease control; conditions: Bipolaris sorokiniana, foliar; read-out: COCHSA percent control
Colletotricum lagenarium = assay: Cucumber Anthracnose (COLLLA), foliar spray, percent disease control; conditions: foliar
Description: The activity of the compounds as effective fungicides was determined by applying the compounds to plants and observing control of fungal disease. The compounds were formulated at 200 ppm in 10 vol. % acetone plus 90 vol. % Triton X water (deionized water 99.99 wt %+0.01 wt % Triton X100), giving a “formulated test compound.” In a few cases, compounds were formulated at 75 or 8.3 ppm rather than 200 ppm in 10 vol. % acetone plus 90 vol. % Triton X water (deionized water 99.99 wt. %+0.01 wt. % Triton X100), giving a “formulated test compound.” Formulated test compounds were applied to plants using a turn table sprayer fitted with two opposing air atomization nozzles which delivered approximately 1500 L/ha of spray volume. All plants were inoculated with spores of the fungus the day after treatment, then incubated in an environment conducive to disease development. Disease severity was evaluated 4 to 15 days later, depending on the disease and the speed of disease development. The following experiments were performed in the laboratory to determine the fungicidal efficacy of the compounds of the invention. Cucumber Anthracnose (causal agent Colletotricum lagenarium; Bayer code COLLLA): Cucumber plants (variety Bush Champion) were grown from seed in a soil-less peat-based potting mixture (Metromix) until the first true leaf was 20-80% expanded. Each pot contained 1 seedling. These plants were sprayed until wet with the formulated test compound. On the following day, the leaves were inoculated with an aqueous spore suspension of Colletotricum lagenarium and the plants were kept in high humidity for one day to permit spores to germinate and infect the leaf. The plants were then transferred to a growth chamber until disease developed on untreated control plants. […] The effectiveness of the test compounds at controlling disease when sprayed on leaves was determined by assessing the severity of disease on treated plants, then converting the severity to percent control based on the level of disease on untreated, inoculated plants. Data are the level (in percent) at which the given disease was controlled when the given compound was applied to the foliage of the plants at 200 ppm. In a few cases (noted in the table) the compound was applied to the plants at 75 ppm or 8.3 ppm.

[1] = system: Pseudoperonospora cubensis; assay: Cucumber Downy Mildew (PSPECU), foliar spray, percent disease control; conditions: foliar, read-out: PSPECU percent control
Description: The activity of the compounds as effective fungicides was determined by applying the compounds to plants and observing control of fungal disease. The compounds were formulated at 200 ppm in 10 vol. % acetone plus 90 vol. % Triton X water (deionized water 99.99 wt %+0.01 wt % Triton X100), giving a “formulated test compound.” In a few cases, compounds were formulated at 75 or 8.3 ppm rather than 200 ppm in 10 vol. % acetone plus 90 vol. % Triton X water (deionized water 99.99 wt. %+0.01 wt. % Triton X100), giving a “formulated test compound.” Formulated test compounds were applied to plants using a turn table sprayer fitted with two opposing air atomization nozzles which delivered approximately 1500 L/ha of spray volume. All plants were inoculated with spores of the fungus the day after treatment, then incubated in an environment conducive to disease development. Disease severity was evaluated 4 to 15 days later, depending on the disease and the speed of disease development. The following experiments were performed in the laboratory to determine the fungicidal efficacy of the compounds of the invention. Cucumber Downy Mildew (causal agent Pseudoperonospora cubensis; Bayer code […]): Cucumber plants (variety Bush Champion) were grown from seed in a soil-less peat-based potting mixture (Metromix) until the first true leaf was 20-80% expanded. Each pot contained 1 seedling. These plants were sprayed until wet with the formulated test compound. On the following day, the leaves were inoculated with an aqueous suspension of downy mildew sporangia and the plants were kept in high humidity for one day to permit sporangia to germinate and infect the leaf. The plants were then incubated in a growth chamber until disease developed on untreated control plants. […] The effectiveness of the test compounds at controlling disease when sprayed on leaves was determined by assessing the severity of disease on treated plants, then converting the severity to percent control based on the level of disease on untreated, inoculated plants. Data are the level (in percent) at which the given disease was controlled when the given compound was applied to the foliage of the plants at 200 ppm. In a few cases (noted in the table) the compound was applied to the plants at 75 ppm or 8.3 ppm.

Structure (SMILES) | pest or weed control at 200 µg/mL (Cochliobolus sativus) [%] | pest or weed control at 200 µg/mL (Colletotricum lagenarium) [%] | pest or weed control at 200 µg/mL [1] [%]
Ic1ccnc(Oc2cccc(CCNc3ncnc4nccnc34)c2)c1 [Compound 74] | 0 to 49 | 0 to 49 | 80 to 100
Fc1ccc(-c2ccc(CCNc3ncnc4nccnc34)cc2)cn1 [Compound 121, {2-[4-(6-Fluoropyridin-3-yl)-phenyl]-ethyl}-pteridin-4-yl-amine] | 0 to 49 | 0 to 49 | 80 to 100
N#Cc1c(Cl)cccc1Oc1ccc(CCNc2ncnc3nccnc23)cc1 [Compound 61] | 0 to 49 | 0 to 49 | 80 to 100
COc1cc(CCNc2ncnc3nccnc23)cc(OC)c1O [Compound 181] | 0 to 49 | 0 to 49 | 0 to 49
Oc1cccc(CCNc2ncnc3nccnc23)c1 [Compound 20] | 0 to 49 | 0 to 49 | 0 to 49
COc1cc(CCNc2ncnc3nccnc23)ccc1O [Compound 37] | 0 to 49 | 0 to 49 | 0 to 49
c1ccc(OCc2nnc(Oc3ccc(CCNc4ncnc5nccnc45)cc3)s2)cc1 [Compound 27] | 0 to 49 | 0 to 49 | 0 to 49
COc1ccc(C(C)Nc2ncnc3nccnc23)cc1 (stereo not drawn) [Compound 17] | 0 to 49 | 50 to 79 | 80 to 100
O=Cc1cc(Cl)cnc1Oc1ccc(CCNc2ncnc3nccnc23)cc1 [Compound 102] | 0 to 49 | 0 to 49 | 80 to 100
FC(F)(F)c1ccc(Oc2ccc(CCNc3ncnc4ncc(Cl)nc34)cc2)nc1 [Compound 124] | 0 to 49 | 0 to 49 | 80 to 100
COc1ccc(CCNc2ncnc3nccnc23)c(F)c1 [Compound 62] | 0 to 49 | 0 to 49 | 80 to 100
Fc1cnc(C(F)(F)F)c(F)c1Oc1ccc(CCNc2ncnc3nccnc23)cc1 [Compound 72] | 0 to 49 | 50 to 79 | 80 to 100
COc1cc(C(F)(F)F)cc(Oc2ccc(CCNc3ncnc4nccnc34)cc2F)n1 [Compound 185] | 0 to 49 | 0 to 49 | 80 to 100
O=Cc1cc(C(F)(F)F)ccc1Oc1ccc(CCNc2ncnc3nccnc23)cc1 [Compound 100] | 0 to 49 | 0 to 49 | 80 to 100
CON=C(C)c1ccnc(Oc2ccc(CCNc3ncnc4nccnc34)cc2)c1 [Compound 63] | 0 to 49 | 0 to 49 | 80 to 100
N#Cc1c(Cl)cncc1Oc1ccc(CCNc2ncnc3ncc(Cl)nc23)cc1 [Compound 119] | 0 to 49 | 0 to 49 | 0 to 49
COc1cc(CCNc2ncnc3nccnc23)ccc1Oc1cc(C#N)ccn1 [Compound 57] | 0 to 49 | 0 to 49 | 80 to 100
FC(F)(F)c1cnccc1Oc1cccc(CCNc2ncnc3nccnc23)c1 [Compound 77] | 0 to 49 | 0 to 49 | 80 to 100
FC(F)(F)c1ccnc(Oc2cccc(OCCNc3ncnc4nccnc34)c2)c1 [Compound 86] | 0 to 49 | 0 to 49 | 80 to 100
Brc1nsc(Oc2ccc(CCNc3ncnc4nccnc34)cc2)n1 [Compound 33] | 0 to 49 | 0 to 49 | 0 to 49
